Measured values published in publication PMC10180078, “In Silico and In Vitro Assessment of Carbonyl Reductase 1 Inhibition Using ASP9521—A Potent Aldo-Keto Reductase 1C3 Inhibitor with the Potential to Support Anticancer Therapy Using Anthracycline Antibiotics” (Molecules, 2023).

Target: T1, carbonyl reductase 1 (CBR1) (Homo sapiens, UniProt P16152)
T1 construct: human recombinant CBR1 expressed in Escherichia coli Rosetta (DE3)
T1 sequence (P16152 2-277): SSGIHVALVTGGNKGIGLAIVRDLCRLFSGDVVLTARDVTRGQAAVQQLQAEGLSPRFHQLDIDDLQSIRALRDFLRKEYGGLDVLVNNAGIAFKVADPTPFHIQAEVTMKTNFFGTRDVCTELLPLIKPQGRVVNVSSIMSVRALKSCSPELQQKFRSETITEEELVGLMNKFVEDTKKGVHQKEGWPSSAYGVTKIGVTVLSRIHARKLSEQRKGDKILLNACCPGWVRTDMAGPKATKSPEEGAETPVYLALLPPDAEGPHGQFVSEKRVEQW
Assay: recombinant CBR1 inhibition, menadione substrate, NADPH oxidation monitored at […] nm
Assay type: biochemical

Work on `COc1ccc2[nH]c(C(=O)N3CCC(CC(C)(C)O)CC3)cc2c1` [ASP9521] yielded an IC50 of 44 µM.
